Test results from patent US20240307362A1 (priority 2019, published 2024).
Values joined by “and” are separate entries in the source; they are usually repeats but may differ in a detail not shown here. Equal entries are not always repeated. Where two headings read alike, the source gives them in different places.

Key:
Ba/F3-EGFR-insSVD = assay: Ba/F3 cell survival assay, EGFR-insSVD; format: cell-based
Description: (§1) 293T cells from ATCC were transfected with pBABEpuro expression constructs for WT EGFR or EGFR-insSVD and pCL-Eco packaging vector using Fugene-6 transfection reagent from Promega. Plates were incubated at 37° C. for 48 h. Retrovirus was harvested by filtering the media supernatant through a 0.45 μm filter.
(§2) Ba/F3 cells purchased from DSMZ were grown in RPMI+10% FBS+10 ng/mL IL-3 and infected with filtered retroviral supernatant at a 1:2 dilution. Polybrene was added to a concentration of 8 μg/mL, plates were spun for 90 min, and incubated overnight at 37° C. 2 μg/mL puromycin was added to the infected cells 24 h after infection and cells were continually grown in the presence of puromycin and 10 ng/mL IL-3. Following stably expressing Ba/F3 cell lines were generated: Ba/F3-EGFR-WT, Ba/F3-EGFR-insSVD, (Ba/F3-vector-control).
For cell survival assays, Ba/F3 cells were grown to a density of 1-2 million cells per mL, spun down and resuspended in media without IL-3, and replated at a concentration 200,000-500,000 cells per mL. The cells ectopically expressing WT EGFR or EGFR-insSVD were plated with 10 ng/mL Millipore Culture grade EGF. The cells ectopically expressing pBABEpuro empty vector were plated with 10 ng/mL IL-3.
2 days later, cells were plated in 50 μL in a 384 well plate at a concentration of 4000 cells per well for cells assayed in the absence of IL-3 and 2000 cells per well for cells assayed in the presence of IL-3. 100 nL of compound was added to each well using a 100 nL pin head, and plates were incubated at 37° C. for 48 h.
Cell viability was measured by adding 20 μL of Cell Titer-Glo Luminescent Cell Viability Reagent diluted 1:3 in PBS. Plates were sealed with Perkin Elmer Top-Seal, inverted several times to mix, and immediately centrifuged at 1000 rpm for 2 min. Plates were incubated in low light conditions for 8-10 min and luminescence was measured.

human Bub1 = human Bub1 (Homo sapiens (Human), UniProt O43683); assay: Bub1 high ATP kinase assay (TR-FRET); format: biochemical
Sequence of human Bub1 (O43683 704-1085): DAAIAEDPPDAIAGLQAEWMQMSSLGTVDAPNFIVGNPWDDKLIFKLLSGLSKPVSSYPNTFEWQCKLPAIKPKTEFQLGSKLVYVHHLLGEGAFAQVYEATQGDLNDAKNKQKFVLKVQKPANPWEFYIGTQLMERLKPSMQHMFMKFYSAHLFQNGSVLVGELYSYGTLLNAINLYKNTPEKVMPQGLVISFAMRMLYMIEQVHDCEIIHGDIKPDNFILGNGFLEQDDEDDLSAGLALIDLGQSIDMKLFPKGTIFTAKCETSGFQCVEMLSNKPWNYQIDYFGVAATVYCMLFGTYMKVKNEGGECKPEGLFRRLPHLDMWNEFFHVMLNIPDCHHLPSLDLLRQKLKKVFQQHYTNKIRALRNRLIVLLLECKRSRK
From the text: Bub1-inhibitory activity of compounds of the present invention at a high ATP concentration was quantified employing the Bub1 TR-FRET high ATP kinase assay as described in the following paragraphs.
N-terminally His6-tagged recombinant catalytic domain of human Bub1 (amino acids 704-1085), expressed in insect cells (Hi5) and purified by Ni-NTA affinity chromatography and subsequent size exclusion chromatography, was used as enzyme.

Ba/F3-EGFR-WT = assay: Ba/F3 cell survival assay, WT EGFR; format: cell-based
Description: as §1, §2
The cells ectopically expressing WT EGFR or EGFR-insSVD were plated with 10 ng/mL Millipore Culture grade EGF. The cells ectopically expressing pBABEpuro empty vector were plated with 10 ng/mL IL-3.
100 nL of compound was added to each well using a 100 nL pin head, and plates were incubated at 37° C. for 48 h.
Cell viability was measured by adding 20 μL of Cell Titer-Glo Luminescent Cell Viability Reagent diluted 1:3 in PBS. Plates were sealed with Perkin Elmer Top-Seal, inverted several times to mix, and immediately centrifuged at 1000 rpm for 2 min.

[1] = Mus musculus, BaF3, 48 h, read-out: BA/F3 (insSVD) IC50, cell viability, Cell Titer-Glo, 48 h, with 10 ng/mL EGF, without IL-3
[2] = read-out: Bub1 high ATP (2 mM) IC50, 2 mM ATP
[3] = Mus musculus, BaF3, 48 h, read-out: BA/F3 (wild type) IC50, cell viability, Cell Titer-Glo, 48 h, with 10 ng/mL EGF, without IL-3
[4] = read-out: BA/F3 (insSVD) IC50, cell viability, Cell Titer-Glo, 48 h, with 10 ng/mL EGF, without IL-3
[5] = read-out: BA/F3 (wild type) IC50, cell viability, Cell Titer-Glo, 48 h, with 10 ng/mL EGF, without IL-3
[6] = Bub1 high ATP (2 mM) IC50, 2 mM ATP

COc1c(F)cccc1Nc1c(-c2ccncc2OCC2(C)CCO2)[nH]c2c1C(=O)NCC2 (racemic) [Example 19, 3-(3-fluoro-2-methoxyanilino)-2-{3-[(2-methyloxetan-2-yl)methoxy]pyridin-4-yl}-1,5,6,7-tetrahydro-4H-pyrrolo[3,2-c]pyridin-4-one]
IC50 (Ba/F3-EGFR-insSVD; [1]): 66.7 nM
IC50 (human Bub1; [2]): 13700 nM and > 20000 nM
IC50 (Ba/F3-EGFR-WT; [3]): 2060 nM

COc1c(F)cccc1Nc1c(-c2ccncc2OC[C@@H]2CCO2)[nH]c2c1C(=O)NCC2 [Example 5, 3-(3-fluoro-2-methoxyanilino)-2-(3-{[(2S)-oxetan-2-yl]methoxy}pyridin-4-yl)-1,5,6,7-tetrahydro-4H-pyrrolo[3,2-c]pyridin-4-one]
IC50 (Ba/F3-EGFR-insSVD; [1]): 22.4 nM
IC50 (human Bub1; [2]): > 20000 nM
IC50 (Ba/F3-EGFR-WT; [3]): 578 nM

CCC1(COc2cnccc2-c2[nH]c3c(c2Nc2cccc(Cl)c2Cl)C(=O)NCC3)COC1 [Example 87, 3-(2,3-dichloroanilino)-2-{3-[(3-ethyloxetan-3-yl)methoxy]pyridin-4-yl}-1,5,6,7-tetrahydro-4H-pyrrolo[3,2-c]pyridin-4-one]
IC50 (Ba/F3-EGFR-insSVD; [1]): 119 nM
IC50 (human Bub1; [2]): > 5700 nM
IC50 (Ba/F3-EGFR-WT; [3]): 813 nM

COc1c(Cl)cccc1Nc1c(-c2ccncc2OCCC2CCO2)[nH]c2c1C(=O)NCC2 (single isomer, unassigned; (+)) [Example 25, (+)-3-(3-chloro-2-methoxyanilino)-2-{3-[2-(oxetan-2-yl)ethoxy]pyridin-4-yl}-1,5,6,7-tetrahydro-4H-pyrrolo[3,2-c]pyridin-4-one]
IC50 (Ba/F3-EGFR-insSVD; [1]): 4.21 nM
IC50 (human Bub1; [2]): 1080 nM
IC50 (Ba/F3-EGFR-WT; [3]): 121 nM

COc1c(F)cccc1Nc1c(-c2ccncc2OCC2OCC2(C)C)[nH]c2c1C(=O)NCC2 (single isomer, unassigned; (+)) [Example 54, (+)-2-{3-[(3,3-dimethyloxetan-2-yl)methoxy]pyridin-4-yl}-3-(3-fluoro-2-methoxyanilino)-1,5,6,7-tetrahydro-4H-pyrrolo[3,2-c]pyridin-4-one]
IC50 (Ba/F3-EGFR-insSVD; [4]): 30.9 nM
IC50 (human Bub1; [2]): > 20000 nM
IC50 (Ba/F3-EGFR-WT; [5]): 498 nM

COc1c(Nc2c(-c3ccncc3OCC3CCO3)[nH]c3c2C(=O)NCC3)ccc(F)c1Cl (single isomer, unassigned; (+)) [Example 15, (+)-3-(3-chloro-4-fluoro-2-methoxyanilino)-2-{3-[(oxetan-2-yl)methoxy]pyridin-4-yl}-1,5,6,7-tetrahydro-4H-pyrrolo[3,2-c]pyridin-4-one]
IC50 (Ba/F3-EGFR-insSVD; [4]): 168 nM
IC50 (human Bub1; [2]): > 20000 nM
IC50 (Ba/F3-EGFR-WT; [5]): 2380 nM

Cc1cccc(Nc2c(-c3ccncc3OCC3CCO3)[nH]c3c2C(=O)NCC3)c1Cl (racemic) [Example 37, 3-(2-chloro-3-methylanilino)-2-{3-[(oxetan-2-yl)methoxy]pyridin-4-yl}-1,5,6,7-tetrahydro-4H-pyrrolo[3,2-c]pyridin-4-one]
IC50 (Ba/F3-EGFR-insSVD; [1]): 105 nM
IC50 (human Bub1; [2]): 11700 nM
IC50 (Ba/F3-EGFR-WT; [3]): 942 nM

COc1c(Nc2c(-c3ccncc3OCC3CCO3)[nH]c3c2C(=O)NCC3)ccc(F)c1Cl (racemic) [Example 13, 3-(3-chloro-4-fluoro-2-methoxyanilino)-2-{3-[(oxetan-2-yl)methoxy]pyridin-4-yl}-1,5,6,7-tetrahydro-4H-pyrrolo[3,2-c]pyridin-4-one]
IC50 (Ba/F3-EGFR-insSVD; [1]): 348 nM
IC50 (human Bub1; [2]): > 20000 nM
IC50 (Ba/F3-EGFR-WT; [3]): 2300 nM

COc1c(F)cccc1Nc1c(-c2ccncc2OCCC2CCO2)[nH]c2c1C(=O)NCC2 (single isomer, unassigned) [Example 44, 3-(3-fluoro-2-methoxyanilino)-2-{3-[2-(oxetan-2-yl)ethoxy]pyridin-4-yl}-1,5,6,7-tetrahydro-4H-pyrrolo[3,2-c]pyridin-4-one]
IC50 (Ba/F3-EGFR-insSVD; [1]): 34.1 nM
IC50 (human Bub1; [6]): > 20000 nM
IC50 (Ba/F3-EGFR-WT; [3]): 903 nM

O=C1NCCc2[nH]c(-c3ccncc3OCCC3CCO3)c(Nc3cccc(Cl)c3Cl)c21 (single isomer, unassigned) [Example 64, 3-(2,3-dichloroanilino)-2-(3-{2-[oxetan-2-yl]ethoxy}pyridin-4-yl)-1,5,6,7-tetrahydro-4H-pyrrolo[3,2-c]pyridin-4-one]
IC50 (Ba/F3-EGFR-insSVD; [4]): 23 nM
IC50 (human Bub1; [6]): 5380 nM
IC50 (Ba/F3-EGFR-WT; [5]): 726 nM

COc1c(Cl)cccc1Nc1c(-c2ccncc2OCC2(C)CCO2)[nH]c2c1C(=O)NCC2 (single isomer, unassigned; (-)) [Example 47, (−)-3-(3-chloro-2-methoxyanilino)-2-{3-[(2-methyloxetan-2-yl)methoxy]pyridin-4-yl}-1,5,6,7-tetrahydro-4H-pyrrolo[3,2-c]pyridin-4-one]
IC50 (Ba/F3-EGFR-insSVD; [4]): 96.4 nM
IC50 (human Bub1; [2]): 8860 nM
IC50 (Ba/F3-EGFR-WT; [5]): 975 nM

Cc1c(Cl)cc(F)cc1Nc1c(-c2ccncc2OCC2CCO2)[nH]c2c1C(=O)NCC2 (single isomer, unassigned) [Example 41, 3-(3-chloro-5-fluoro-2-methylanilino)-2-{3-[(oxetan-2-yl)methoxy]pyridin-4-yl}-1,5,6,7-tetrahydro-4H-pyrrolo[3,2-c]pyridin-4-one]
IC50 (Ba/F3-EGFR-insSVD; [4]): 346 nM
IC50 (human Bub1; [6]): 6350 nM
IC50 (Ba/F3-EGFR-WT; [5]): 1780 nM

Cc1cccc(Nc2c(-c3ccncc3OCC3OCC3(C)C)[nH]c3c2C(=O)NCC3)c1Cl (single isomer, unassigned; (+)) [Example 59, (+)-3-(2-chloro-3-methylanilino)-2-{3-[(3,3-dimethyloxetan-2-yl)methoxy]pyridin-4-yl}-1,5,6,7-tetrahydro-4H-pyrrolo[3,2-c]pyridin-4-one]
IC50 (Ba/F3-EGFR-insSVD; [4]): 59.9 nM
IC50 (human Bub1; [2]): > 20000 nM
IC50 (Ba/F3-EGFR-WT; [5]): 655 nM

COc1c(F)cccc1Nc1c(-c2ccncc2OCCC2CCO2)[nH]c2c1C(=O)NCC2 (racemic) [Example 43, 3-(3-fluoro-2-methoxyanilino)-2-{3-[2-(oxetan-2-yl)ethoxy]pyridin-4-yl}-1,5,6,7-tetrahydro-4H-pyrrolo[3,2-c]pyridin-4-one]
IC50 (Ba/F3-EGFR-insSVD; [1]): 11.5 nM
IC50 (human Bub1; [2]): 3500 nM
IC50 (Ba/F3-EGFR-WT; [3]): 262 nM

Cc1cccc(Nc2c(-c3ccncc3OCCC3CCO3)[nH]c3c2C(=O)NCC3)c1Cl (stereo not shown) [Example 62, 3-(2-chloro-3-methylanilino)-2-{3-[2-(oxetan-2-yl)ethoxy]pyridin-4-yl}-1,5,6,7-tetrahydro-4H-pyrrolo[3,2-c]pyridin-4-one]
IC50 (Ba/F3-EGFR-insSVD; [1]): 42.1 nM
IC50 (human Bub1; [6]): > 5710 nM
IC50 (human Bub1; [2]): 5250 nM
IC50 (Ba/F3-EGFR-WT; [3]): 3700 nM

COc1c(F)cccc1Nc1c(-c2ccncc2OCC2(C)CCO2)[nH]c2c1C(=O)NCC2 (single isomer, unassigned; (+)) [Example 21, (+)-3-(3-fluoro-2-methoxyanilino)-2-{3-[(2-methyloxetan-2-yl)methoxy]pyridin-4-yl}-1,5,6,7-tetrahydro-4H-pyrrolo[3,2-c]pyridin-4-one]
IC50 (Ba/F3-EGFR-insSVD; [4]): 40.4 nM
IC50 (human Bub1; [2]): > 20000 nM
IC50 (Ba/F3-EGFR-WT; [5]): 571 nM

COc1c(F)cccc1Nc1c(-c2ccncc2OCC2CCO2)[nH]c2c1C(=O)NCC2 (racemic) [Example 4, 3-(3-fluoro-2-methoxyanilino)-2-{3-[(oxetan-2-yl)methoxy]pyridin-4-yl}-1,5,6,7-tetrahydro-4H-pyrrolo[3,2-c]pyridin-4-one]
IC50 (Ba/F3-EGFR-insSVD; [1]): 59.3 nM
IC50 (human Bub1; [2]): 17400 nM
IC50 (Ba/F3-EGFR-WT; [3]): 939 nM

COc1c(Br)cccc1Nc1c(-c2ccncc2OCC2CCO2)[nH]c2c1C(=O)NCC2 (single isomer, unassigned) [Example 34, 3-(3-bromo-2-methoxyanilino)-2-{3-[(oxetan-2-yl)methoxy]pyridin-4-yl}-1,5,6,7-tetrahydro-4H-pyrrolo[3,2-c]pyridin-4-one]
IC50 (Ba/F3-EGFR-insSVD; [4]): 20.4 nM
IC50 (human Bub1; [6]): > 20000 nM
IC50 (Ba/F3-EGFR-WT; [5]): 519 nM

Cc1c(Cl)cc(F)cc1Nc1c(-c2ccncc2OCC2CCO2)[nH]c2c1C(=O)NCC2 (racemic) [Example 40, 3-(3-chloro-5-fluoro-2-methylanilino)-2-{3-[(oxetan-2-yl)methoxy]pyridin-4-yl}-1,5,6,7-tetrahydro-4H-pyrrolo[3,2-c]pyridin-4-one]
IC50 (Ba/F3-EGFR-insSVD; [1]): 115 nM
IC50 (human Bub1; [2]): 10500 nM
IC50 (Ba/F3-EGFR-WT; [3]): 2980 nM
